# In patent US9962354B2, “Method and composition for bacterial or fungal suppression on skin” (priority 2009, dated 2018):
# Columns and labels:
# [1] = direct application of oil to skin with acne; format: in vivo; settings: applied twice daily directly to skin; after 24 hours
# Description: CLA free fatty acid oil was applied twice daily directly to skin with acne.
# [2] = test system: staphylococcus aureus (ATCC 6366); assay: 27 hour kinetic growth assay using a redox active dye; format: cell-based; settings: 25 uL test material in TSB, 27 hour kinetic assay
# Method: (§1) Conjugated linoleic acid (80%) and conjugated linoleic acid diglyceride, containing both trans and cis isomers, were used to show persisting reduction of bacterial growth over several hours. Each measure was accomplished in separate wells. Each well received a unique combination of the following, including controls. Conjugated linoleic acid 80% and conjugated linoleic acid diglyceride, 25 uL were each separately added to Trypticase Soy Broth (TSB). To each solution was added 75 uL TSB plus 50 uL staphylococcus aureus (ATCC 6366) or pseudomonas aeruginosa (ATCC 15442). This was then entered into a 27 hour kinetic assay using a redox active dye to monitor growth. Appropriate controls were simultaneously run.
# [3] = test system: pseudomonas aeruginosa (ATCC 15442); assay: as above; format: cell-based; settings: 25 uL test material in TSB, 27 hour kinetic assay
# Method: as §1
Substance,size and redness of the acne [1],reduction in bacterial growth beginning at [2] [min],reduction in bacterial growth sustained for [2] [h],reduction in bacterial growth beginning at [3] [min],reduction in bacterial growth sustained for [3] [h]
conjugated linoleic acid [conjugated linoleic free fatty acid],substantial reduction in the size and redness of the acne,30,20,200,27
conjugated linoleic acid diglyceride [conjugated linoleic diglyceride],–,30,20,200,27
